The NIST ThermoML archive (doi:10.1021/acs.jced.5b00941)
± gives the expanded uncertainty stated by the source.

Experiment: mn = molality of the nth substance listed, in mol/kg
Conditions: 100 kPa, Liquid; for viscosity: Falling or rolling sphere viscometry; for mass density: Vibrating tube method

[Cl-].[Li+] [lithium chloride] + O
viscosity (288.15 K, m1 = 0.1): 1.146 ± 0.014 mPa·s
viscosity (288.15 K, m1 = 0.2): 1.154 ± 0.014 mPa·s
viscosity (288.15 K, m1 = 0.3): 1.169 ± 0.014 mPa·s
viscosity (288.15 K, m1 = 0.4): 1.183 ± 0.015 mPa·s
viscosity (288.15 K, m1 = 0.5): 1.201 ± 0.015 mPa·s
mass density (288.15 K, m1 = 0.1): 1001.51 ± 1 kg/m3
mass density (288.15 K, m1 = 0.2): 1004 ± 1 kg/m3
mass density (288.15 K, m1 = 0.3): 1006.34 ± 1 kg/m3
mass density (288.15 K, m1 = 0.4): 1008.37 ± 1 kg/m3
mass density (288.15 K, m1 = 0.5): 1011.06 ± 1 kg/m3
viscosity (293.15 K, m1 = 0.1): 1.011 ± 0.012 mPa·s
viscosity (293.15 K, m1 = 0.2): 1.019 ± 0.013 mPa·s
viscosity (293.15 K, m1 = 0.3): 1.033 ± 0.013 mPa·s
viscosity (293.15 K, m1 = 0.4): 1.045 ± 0.013 mPa·s
viscosity (293.15 K, m1 = 0.5): 1.061 ± 0.013 mPa·s
mass density (293.15 K, m1 = 0.1): 1000.58 ± 1 kg/m3
mass density (293.15 K, m1 = 0.2): 1003.06 ± 1 kg/m3
mass density (293.15 K, m1 = 0.3): 1005.37 ± 1 kg/m3
mass density (293.15 K, m1 = 0.4): 1007.4 ± 1 kg/m3
mass density (293.15 K, m1 = 0.5): 1010.07 ± 1 kg/m3
viscosity (298.15 K, m1 = 0.1): 0.898 ± 0.011 mPa·s
viscosity (298.15 K, m1 = 0.2): 0.909 ± 0.011 mPa·s
viscosity (298.15 K, m1 = 0.3): 0.921 ± 0.011 mPa·s
viscosity (298.15 K, m1 = 0.4): 0.932 ± 0.012 mPa·s
viscosity (298.15 K, m1 = 0.5): 0.948 ± 0.012 mPa·s
mass density (298.15 K, m1 = 0.1): 999.41 ± 1 kg/m3
mass density (298.15 K, m1 = 0.2): 1001.87 ± 1 kg/m3
mass density (298.15 K, m1 = 0.3): 1004.17 ± 1 kg/m3
mass density (298.15 K, m1 = 0.4): 1006.19 ± 1 kg/m3
mass density (298.15 K, m1 = 0.5): 1008.81 ± 1 kg/m3
viscosity (303.15 K, m1 = 0.1): 0.809 ± 0.01 mPa·s
viscosity (303.15 K, m1 = 0.2): 0.818 ± 0.01 mPa·s
viscosity (303.15 K, m1 = 0.3): 0.83 ± 0.01 mPa·s
viscosity (303.15 K, m1 = 0.4): 0.84 ± 0.01 mPa·s
viscosity (303.15 K, m1 = 0.5): 0.853 ± 0.011 mPa·s
mass density (303.15 K, m1 = 0.1): 998.003 ± 1 kg/m3
mass density (303.15 K, m1 = 0.2): 1000.45 ± 1 kg/m3
mass density (303.15 K, m1 = 0.3): 1002.75 ± 1 kg/m3
mass density (303.15 K, m1 = 0.4): 1004.76 ± 1 kg/m3
mass density (303.15 K, m1 = 0.5): 1007.35 ± 1 kg/m3
viscosity (308.15 K, m1 = 0.1): 0.735 ± 0.009 mPa·s
viscosity (308.15 K, m1 = 0.2): 0.743 ± 0.009 mPa·s
viscosity (308.15 K, m1 = 0.3): 0.753 ± 0.009 mPa·s
viscosity (308.15 K, m1 = 0.4): 0.762 ± 0.009 mPa·s
viscosity (308.15 K, m1 = 0.5): 0.774 ± 0.01 mPa·s
mass density (308.15 K, m1 = 0.1): 996.382 ± 1 kg/m3
mass density (308.15 K, m1 = 0.2): 998.848 ± 1 kg/m3
mass density (308.15 K, m1 = 0.3): 1001.13 ± 1 kg/m3
mass density (308.15 K, m1 = 0.4): 1003.15 ± 1 kg/m3
mass density (308.15 K, m1 = 0.5): 1005.79 ± 1 kg/m3
